# Laboratory results reported in PubChem BioAssay (NCI).
#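 These data come from cells grown in 96-well plates and exposed to compound for 48 hours at five concentrations. GI50: concentration for 50% inhibition of growth. TGI: total growth inhibition.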
# Tests used:
# Experiment in all cases: NCI tumour cell line growth inhibition, 48 h
# SN12C renal = system: SN12C renal
# UO-31 renal = system: UO-31 renal
# SR leukemia = system: SR leukemia
# NCI-H460 lung = system: NCI-H460 lung
# SF-268 CNS = system: SF-268 CNS
# CAKI-1 renal = system: CAKI-1 renal
# SNB-19 CNS = system: SNB-19 CNS
# A549 NSCLC = system: A549 NSCLC
# OVCAR-4 ovarian = system: OVCAR-4 ovarian
# HOP-92 NSCLC = system: HOP-92 NSCLC
# UACC-62 melanoma = system: UACC-62 melanoma
# COLO 205 colon = system: COLO 205 colon
# OVCAR-3 ovarian = system: OVCAR-3 ovarian
# SK-MEL-28 melanoma = system: SK-MEL-28 melanoma
# MOLT-4 leukemia = system: MOLT-4 leukemia
# KM12 colon = system: KM12 colon
# OVCAR-5 ovarian = system: OVCAR-5 ovarian
# PC-3 prostate = system: PC-3 prostate
# LOX IMVI melanoma = system: LOX IMVI melanoma
# SK-OV-3 ovarian = system: SK-OV-3 ovarian
# BT-549 breast = system: BT-549 breast
# MALME-3M melanoma = system: MALME-3M melanoma
# DU-145 prostate = system: DU-145 prostate
# MCF7 breast = system: MCF7 breast
# NCI-H23 lung = system: NCI-H23 lung
# HCC-2998 colon = system: HCC-2998 colon
# U251 CNS = system: U251 CNS
# SK-MEL-2 melanoma = system: SK-MEL-2 melanoma
# SF-539 CNS = system: SF-539 CNS
# IGROV1 ovarian = system: IGROV1 ovarian
# HT29 colon = system: HT29 colon
# SNB-75 CNS = system: SNB-75 CNS
# SF-295 CNS = system: SF-295 CNS
# MDA-MB-231 breast = system: MDA-MB-231 breast
# HS 578T breast = system: HS 578T breast
# RXF 393 renal = system: RXF 393 renal
# NCI-H226 lung = system: NCI-H226 lung
# 786-0 renal = system: 786-0 renal
# OVCAR-8 ovarian = system: OVCAR-8 ovarian
# SK-MEL-5 melanoma = system: SK-MEL-5 melanoma
# ACHN renal = system: ACHN renal
# UACC-257 melanoma = system: UACC-257 melanoma
# HOP-62 NSCLC = system: HOP-62 NSCLC
# SW-620 colon = system: SW-620 colon
# RPMI-8226 leukemia = system: RPMI-8226 leukemia
# HCT-116 colon = system: HCT-116 colon
# CCRF-CEM leukemia = system: CCRF-CEM leukemia
# A498 renal = system: A498 renal
# T-47D breast = system: T-47D breast
# M14 melanoma = system: M14 melanoma
# HCT-15 colon = system: HCT-15 colon
# NCI/ADR-RES ovarian = system: NCI/ADR-RES ovarian
# TK-10 renal = system: TK-10 renal
# NCI-H522 lung = system: NCI-H522 lung
# MDA-MB-435 = system: MDA-MB-435
# EKVX NSCLC = system: EKVX NSCLC
smiles,measurement,setting,value
COc1ccc2c(c1)CCC1C2CC[C@]2(C)/C(=N/OC(=O)Cc3ccccc3)CCC12 (some centres not stated),GI50,SN12C renal,20.6 µM
same,TGI,SN12C renal,43.6 µM
same,GI50,UO-31 renal,19.2 µM
same,TGI,UO-31 renal,43.8 µM
same,GI50,SR leukemia,14.2 µM
same,TGI,SR leukemia,33.3 µM
same,GI50,NCI-H460 lung,14.6 µM
same,TGI,NCI-H460 lung,30.4 µM
same,GI50,SF-268 CNS,18.7 µM
same,TGI,SF-268 CNS,34.4 µM
same,GI50,CAKI-1 renal,16 µM
same,TGI,CAKI-1 renal,30.9 µM
same,GI50,SNB-19 CNS,18 µM
same,TGI,SNB-19 CNS,36.7 µM
same,GI50,A549 NSCLC,19.3 µM
same,TGI,A549 NSCLC,42.7 µM
same,GI50,OVCAR-4 ovarian,18.4 µM
same,TGI,OVCAR-4 ovarian,48.5 µM
same,GI50,HOP-92 NSCLC,25.2 µM
same,TGI,HOP-92 NSCLC,81 µM
same,GI50,UACC-62 melanoma,15.3 µM
same,TGI,UACC-62 melanoma,30.9 µM
same,GI50,COLO 205 colon,21.7 µM
same,TGI,COLO 205 colon,58.6 µM
same,GI50,OVCAR-3 ovarian,15.8 µM
same,TGI,OVCAR-3 ovarian,31 µM
same,GI50,SK-MEL-28 melanoma,24.1 µM
same,TGI,SK-MEL-28 melanoma,78.1 µM
same,GI50,MOLT-4 leukemia,17.2 µM
same,TGI,MOLT-4 leukemia,35.8 µM
same,GI50,KM12 colon,15 µM
same,TGI,KM12 colon,30.4 µM
same,GI50,OVCAR-5 ovarian,46.6 µM
same,TGI,OVCAR-5 ovarian,> 100 µM
same,GI50,PC-3 prostate,18.5 µM
same,TGI,PC-3 prostate,59.4 µM
same,GI50,LOX IMVI melanoma,18.5 µM
same,TGI,LOX IMVI melanoma,37.2 µM
same,GI50,SK-OV-3 ovarian,28.7 µM
same,TGI,SK-OV-3 ovarian,72.1 µM
same,GI50,BT-549 breast,24.7 µM
same,TGI,BT-549 breast,49.4 µM
same,GI50,MALME-3M melanoma,20.7 µM
same,TGI,MALME-3M melanoma,37.4 µM
same,GI50,DU-145 prostate,28.6 µM
same,TGI,DU-145 prostate,69.2 µM
same,GI50,MCF7 breast,24.7 µM
same,TGI,MCF7 breast,54.5 µM
same,GI50,NCI-H23 lung,16.2 µM
same,TGI,NCI-H23 lung,32.7 µM
same,GI50,HCC-2998 colon,19.8 µM
same,TGI,HCC-2998 colon,35.6 µM
same,GI50,U251 CNS,19.6 µM
same,TGI,U251 CNS,37.4 µM
same,GI50,SK-MEL-2 melanoma,18.6 µM
same,TGI,SK-MEL-2 melanoma,48.6 µM
same,GI50,SF-539 CNS,21.4 µM
same,TGI,SF-539 CNS,42.8 µM
same,GI50,IGROV1 ovarian,14.7 µM
same,TGI,IGROV1 ovarian,29.8 µM
same,GI50,HT29 colon,22.6 µM
same,TGI,HT29 colon,> 100 µM
same,GI50,SNB-75 CNS,19.9 µM
same,TGI,SNB-75 CNS,47.7 µM
same,GI50,SF-295 CNS,16.7 µM
same,TGI,SF-295 CNS,33.8 µM
same,GI50,MDA-MB-231 breast,17.3 µM
same,TGI,MDA-MB-231 breast,38.6 µM
same,GI50,HS 578T breast,28.6 µM
same,TGI,HS 578T breast,70 µM
same,GI50,RXF 393 renal,23.3 µM
same,TGI,RXF 393 renal,47.9 µM
same,GI50,NCI-H226 lung,18.8 µM
same,TGI,NCI-H226 lung,36.5 µM
same,GI50,786-0 renal,18.3 µM
same,TGI,786-0 renal,33.3 µM
same,GI50,OVCAR-8 ovarian,23.2 µM
same,TGI,OVCAR-8 ovarian,57.1 µM
same,GI50,SK-MEL-5 melanoma,12.5 µM
same,TGI,SK-MEL-5 melanoma,29.5 µM
same,GI50,ACHN renal,16.4 µM
same,TGI,ACHN renal,32 µM
same,GI50,UACC-257 melanoma,18.7 µM
same,TGI,UACC-257 melanoma,38.4 µM
same,GI50,HOP-62 NSCLC,17.2 µM
same,TGI,HOP-62 NSCLC,31.6 µM
same,GI50,SW-620 colon,35.5 µM
same,TGI,SW-620 colon,> 100 µM
same,GI50,RPMI-8226 leukemia,12.4 µM
same,TGI,RPMI-8226 leukemia,52.5 µM
same,GI50,HCT-116 colon,13.4 µM
same,TGI,HCT-116 colon,26.2 µM
same,GI50,CCRF-CEM leukemia,13.6 µM
same,TGI,CCRF-CEM leukemia,49.9 µM
same,GI50,A498 renal,21.6 µM
same,TGI,A498 renal,45.8 µM
same,GI50,T-47D breast,19.5 µM
same,TGI,T-47D breast,52.2 µM
same,GI50,M14 melanoma,16.8 µM
same,TGI,M14 melanoma,32.9 µM
same,GI50,HCT-15 colon,18 µM
same,TGI,HCT-15 colon,36.3 µM
same,GI50,NCI/ADR-RES ovarian,20.9 µM
same,TGI,NCI/ADR-RES ovarian,39.8 µM
same,GI50,TK-10 renal,37.7 µM
same,TGI,TK-10 renal,97.1 µM
same,GI50,NCI-H522 lung,12.2 µM
same,TGI,NCI-H522 lung,32.8 µM
same,GI50,MDA-MB-435,16.7 µM
same,TGI,MDA-MB-435,30.5 µM
same,GI50,EKVX NSCLC,19.4 µM
same,TGI,EKVX NSCLC,44.1 µM
